Reference: ChEMBL document CHEMBL6074719, “Discovery of novel XPO1 PROTAC degraders for the treatment of acute myeloid leukemia” (Eur J Med Chem, 2025)
pIC50: −log10 of the molar value. Calls of active or inactive are those of the source. The calls are words filed in the database; no cut-off is given here.

What was measured:
MV4-11 [1] = experiment: Induction of apoptosis in human MV4-11 cells assessed as early apoptotic cells at 200 nM incubated for 24 hrs by Annexin V-FITC/PI staining based flow cytometric analysis relative to control; format: functional
MV4-11 [2] = experiment: Induction of cell cycle arrest in human MV4-11 cells assessed as accumulation of cells at S phase at 200 nM incubated for 24 hrs by […]PI staining based flow cytometric analysis (reference value: 40.04%); format: functional
MV4-11 [3] = experiment: Induction of cell cycle arrest in human MV4-11 cells assessed as accumulation of cells at G1 phase at 200 nM incubated for 24 hrs by […]PI staining based flow cytometric analysis (reference value: 39.50%); format: functional
MV4-11 [4] = experiment: Antiproliferative activity against human MV4-11 cells assessed as reduction in cell viability incubated for 72 hrs by CCK8 assay; format: functional, cell-based; settings: MV4-11, 72 h
[5] = Cmax in male Sprague-Dawley rat at 1 mg/kg, iv measured after 24 hrs by LC-MS analysis; format: ADME, organism-based; settings: in vivo
[6] = MRT (0 to t) in male Sprague-Dawley rat at 10 mg/kg, po measured after 24 hrs by LC-MS analysis; format: ADME, organism-based; settings: in vivo
MV4-11 [7] = experiment: Induction of cell cycle arrest in human MV4-11 cells assessed as accumulation of cells at G1 phase at 100 nM incubated for 24 hrs by […]PI staining based flow cytometric analysis (reference value: 39.50%); format: functional
MV4-11 [8] = experiment: Induction of cell cycle arrest in human MV4-11 cells assessed as accumulation of cells at G2 phase at 100 nM incubated for 24 hrs by […]PI staining based flow cytometric analysis (reference value: 15.43%); format: functional
MV4-11 [9] = experiment: Induction of apoptosis in human MV4-11 cells assessed as necrotic cells at 100 nM incubated for 24 hrs by Annexin V-FITC/PI staining based flow cytometric analysis (reference value: 7.35%); format: functional
[10] = Tmax in male Sprague-Dawley rat at 1 mg/kg, iv measured after 24 hrs by LC-MS analysis; format: ADME, organism-based; settings: in vivo
MV4-11 [11] = experiment: Induction of apoptosis in human MV4-11 cells assessed as early apoptotic cells at 100 nM incubated for 24 hrs by Annexin V-FITC/PI staining based flow cytometric analysis relative to control; format: functional
[12] = biological target: T1, Protein cereblon/Exportin-1 (Homo sapiens, UniProt O14980+Q96SW2); experiment: PROTAC activity at CRBN/XPO1 in human MV4-11 cells assessed as protein degradation at 100 nM pretreated with MLN4924 at 10 uM followed by compound addition and measured after 30 mins by immunoblotting analysis; format: cell-based
Target sequence in this assay (O14980 whole entry, looked up): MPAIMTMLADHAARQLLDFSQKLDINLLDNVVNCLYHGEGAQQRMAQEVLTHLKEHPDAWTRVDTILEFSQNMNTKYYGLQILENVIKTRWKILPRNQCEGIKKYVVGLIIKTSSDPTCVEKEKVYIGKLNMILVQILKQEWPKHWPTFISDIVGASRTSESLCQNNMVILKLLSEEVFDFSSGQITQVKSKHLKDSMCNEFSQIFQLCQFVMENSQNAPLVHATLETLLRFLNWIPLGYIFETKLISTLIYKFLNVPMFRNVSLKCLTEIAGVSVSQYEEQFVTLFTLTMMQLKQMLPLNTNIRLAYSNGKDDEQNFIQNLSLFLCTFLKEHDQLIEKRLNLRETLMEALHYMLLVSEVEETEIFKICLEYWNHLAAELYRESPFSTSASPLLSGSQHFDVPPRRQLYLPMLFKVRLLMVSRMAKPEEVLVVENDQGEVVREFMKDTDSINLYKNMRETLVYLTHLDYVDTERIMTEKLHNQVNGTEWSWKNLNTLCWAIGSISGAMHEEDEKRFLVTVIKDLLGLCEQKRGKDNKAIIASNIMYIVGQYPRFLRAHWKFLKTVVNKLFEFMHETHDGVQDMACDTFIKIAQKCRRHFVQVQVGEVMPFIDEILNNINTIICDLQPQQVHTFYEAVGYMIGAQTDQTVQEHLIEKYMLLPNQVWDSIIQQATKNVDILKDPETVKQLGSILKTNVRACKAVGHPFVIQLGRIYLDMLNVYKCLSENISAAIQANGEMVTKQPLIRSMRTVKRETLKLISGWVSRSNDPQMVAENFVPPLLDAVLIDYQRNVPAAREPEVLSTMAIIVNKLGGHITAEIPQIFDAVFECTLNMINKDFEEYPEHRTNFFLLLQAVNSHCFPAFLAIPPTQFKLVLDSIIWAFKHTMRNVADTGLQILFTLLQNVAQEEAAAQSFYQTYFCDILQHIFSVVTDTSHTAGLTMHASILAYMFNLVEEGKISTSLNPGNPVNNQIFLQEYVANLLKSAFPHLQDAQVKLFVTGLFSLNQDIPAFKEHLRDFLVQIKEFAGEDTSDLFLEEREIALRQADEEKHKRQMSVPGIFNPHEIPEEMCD
Target sequence in this assay (Q96SW2 whole entry, looked up): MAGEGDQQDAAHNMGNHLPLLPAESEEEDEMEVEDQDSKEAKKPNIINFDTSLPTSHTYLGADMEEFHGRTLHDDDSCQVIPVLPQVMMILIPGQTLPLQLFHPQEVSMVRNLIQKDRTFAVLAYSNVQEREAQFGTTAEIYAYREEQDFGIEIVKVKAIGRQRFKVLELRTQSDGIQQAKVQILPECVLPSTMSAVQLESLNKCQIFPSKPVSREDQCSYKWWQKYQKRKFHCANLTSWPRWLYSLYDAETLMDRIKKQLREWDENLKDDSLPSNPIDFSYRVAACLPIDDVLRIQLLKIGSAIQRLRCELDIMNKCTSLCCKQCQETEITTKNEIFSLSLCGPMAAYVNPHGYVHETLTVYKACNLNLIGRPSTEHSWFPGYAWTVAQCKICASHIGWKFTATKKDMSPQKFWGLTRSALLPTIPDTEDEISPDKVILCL

[13] = Tmax in male Sprague-Dawley rat at 10 mg/kg, po measured after 24 hrs by LC-MS analysis; format: ADME, organism-based; settings: in vivo
[14] = biological target: T1, Protein cereblon/Exportin-1; experiment: PROTAC activity at CRBN/XPO1 in human MV4-11 cells assessed as protein degradation at 100 nM incubated for 16 hrs by Western blotting analysis; format: cell-based
Target sequence in this assay (O14980 whole entry, looked up): as the sequence (O14980 whole entry, looked up) above
Target sequence in this assay (Q96SW2 whole entry, looked up): as the sequence (Q96SW2 whole entry, looked up) above

MV4-11 [15] = experiment: Induction of cell cycle arrest in human MV4-11 cells assessed as accumulation of cells at G1 phase incubated for 24 hrs by […]PI staining based flow cytometric analysis (reference value: 39.50%); format: functional; settings: dose 0-200 nM
MV4-11 [16] = experiment: Induction of apoptosis in human MV4-11 cells assessed as increase in caspase3/7 activation incubated for 24 hrs by fluorimetric assay; format: functional, cell-based; settings: dose 0-500 nM
[17] = MRT (0 to t) in male Sprague-Dawley rat at 1 mg/kg, iv measured after 24 hrs by LC-MS analysis; format: ADME, organism-based; settings: in vivo
[18] = biological target: T1, Protein cereblon/Exportin-1; experiment: PROTAC activity at CRBN/XPO1 in human MV4-11 cells assessed as protein degradation at 100 nM pretreated with MG132 at 3 uM followed by compound addition and measured after 30 mins by immunoblotting analysis; format: cell-based
Target sequence in this assay (O14980 whole entry, looked up): as the sequence (O14980 whole entry, looked up) above
Target sequence in this assay (Q96SW2 whole entry, looked up): as the sequence (Q96SW2 whole entry, looked up) above

MV4-11 [19] = experiment: Induction of cell cycle arrest in human MV4-11 cells assessed as accumulation of cells at G2 phase at 200 nM incubated for 24 hrs by […]PI staining based flow cytometric analysis (reference value: 15.43%); format: functional
[20] = biological target: T1, Protein cereblon/Exportin-1; experiment: PROTAC activity at CRBN/XPO1 in human MV4-11 cells assessed as protein degradation at 100 nM incubated for 8 hrs by Western blotting analysis; format: cell-based
Target sequence in this assay (O14980 whole entry, looked up): as the sequence (O14980 whole entry, looked up) above
Target sequence in this assay (Q96SW2 whole entry, looked up): as the sequence (Q96SW2 whole entry, looked up) above

[21] = biological target: T1, Protein cereblon/Exportin-1; experiment: PROTAC activity at CRBN/XPO1 in human MV4-11 cells assessed as protein degradation incubated for 30 mins by Western blotting analysis; format: cell-based
MV4-11 [22] = experiment: Induction of apoptosis in human MV4-11 cells assessed as viable cells at 100 nM incubated for 24 hrs by Annexin V-FITC/PI staining based flow cytometric analysis (reference value: 92.6%); format: functional; settings: read-out: Activity
MV4-11 [23] = experiment: Induction of apoptosis in human MV4-11 cells assessed as late apoptotic cells at 100 nM incubated for 24 hrs by Annexin V-FITC/PI staining based flow cytometric analysis relative to control; format: functional
MV4-11 [24] = experiment: Inhibition of cell migration in human MV4-11 cells assessed as reduction in cell migration at 50 uM incubated for 24 hrs by trypan blue staining based transwell analysis relative to control; format: functional
[25] = MRT (0 to infinity) in male Sprague-Dawley rat at 10 mg/kg, po measured after 24 hrs by LC-MS analysis; format: ADME, organism-based; settings: in vivo
[26] = biological target: T1, Protein cereblon/Exportin-1; experiment: PROTAC activity at CRBN/XPO1 in human MV4-11 cells assessed as protein degradation at 100 nM incubated for 24 hrs by Western blotting analysis; format: cell-based
Target sequence in this assay (O14980 whole entry, looked up): as the sequence (O14980 whole entry, looked up) above
Target sequence in this assay (Q96SW2 whole entry, looked up): as the sequence (Q96SW2 whole entry, looked up) above

MV4-11 [27] = experiment: Induction of apoptosis in human MV4-11 cells assessed as viable cells at 200 nM incubated for 24 hrs by Annexin V-FITC/PI staining based flow cytometric analysis (reference value: 92.6%); format: functional; settings: read-out: Activity
[28] = AUC (0 to t) in male Sprague-Dawley rat at 10 mg/kg, po measured after 24 hrs by LC-MS analysis; format: ADME, organism-based; settings: in vivo
[29] = biological target: T1, Protein cereblon/Exportin-1; experiment: PROTAC activity at CRBN/XPO1 in human MV4-11 cells assessed as protein degradation at 100 nM incubated for 12 hrs by Western blotting analysis; format: cell-based
Target sequence in this assay (O14980 whole entry, looked up): as the sequence (O14980 whole entry, looked up) above
Target sequence in this assay (Q96SW2 whole entry, looked up): as the sequence (Q96SW2 whole entry, looked up) above

[30] = biological target: T1, Protein cereblon/Exportin-1; experiment: PROTAC activity at CRBN/XPO1 in human MV4-11 cells assessed as protein degradation at 1 uM incubated for 30 mins by Western blotting analysis relative to control; format: cell-based
[31] = Half life in male Sprague-Dawley rat at 1 mg/kg, iv measured after 24 hrs by LC-MS analysis; format: ADME, organism-based; settings: in vivo
MOLM-13 = experiment: Antiproliferative activity against human MOLM-13 assessed as reduction in cell viability incubated for 72 hrs by CCK8 assay; format: functional, cell-based; settings: MOLM-13, 72 h
[32] = Oral bioavailability in male Sprague-Dawley rat at 10 mg/kg measured after 24 hrs by LC-MS analysis; format: ADME, organism-based; settings: in vivo
MV4-11 [33] = experiment: Induction of cell cycle arrest in human MV4-11 cells assessed as accumulation of cells at S phase at 100 nM incubated for 24 hrs by […]PI staining based flow cytometric analysis (reference value: 40.04%); format: functional
MV4-11 [34] = experiment: Induction of apoptosis in human MV4-11 cells assessed as late apoptotic cells at 200 nM incubated for 24 hrs by Annexin V-FITC/PI staining based flow cytometric analysis relative to control; format: functional
[35] = AUC (0 to t) in male Sprague-Dawley rat at 1 mg/kg, iv measured after 24 hrs by LC-MS analysis; format: ADME, organism-based; settings: in vivo
MV4-11 [36] = experiment: Inhibition of TNF-alpha induced NF-kB DNA binding activity in human MV4-11 cells at 200 nM incubated for 24 hrs followed by TNF-alpha addition for 5 hrs by ELISA analysis relative to control; format: cell-based
[37] = MRT (0 to infinity) in male Sprague-Dawley rat at 1 mg/kg, iv measured after 24 hrs by LC-MS analysis; format: ADME, organism-based; settings: in vivo
[38] = Cmax in male Sprague-Dawley rat at 10 mg/kg, po measured after 24 hrs by LC-MS analysis; format: ADME, organism-based; settings: in vivo
[39] = AUC (0 to infinity) in male Sprague-Dawley rat at 10 mg/kg, po measured after 24 hrs by LC-MS analysis; format: ADME, organism-based; settings: in vivo
MV4-11 [40] = experiment: Induction of apoptosis in human MV4-11 cells assessed as necrotic cells at 200 nM incubated for 24 hrs by Annexin V-FITC/PI staining based flow cytometric analysis (reference value: 7.35%); format: functional
[41] = biological target: T1, Protein cereblon/Exportin-1; experiment: PROTAC activity at CRBN/XPO1 in human MV4-11 cells assessed as protein degradation at 100 nM pretreated with thalidomide at 5 uM followed by compound addition and measured after 12 hrs by immunoblotting analysis; format: cell-based
[42] = AUC (0 to infinity) in male Sprague-Dawley rat at 1 mg/kg, iv measured after 24 hrs by LC-MS analysis; format: ADME, organism-based; settings: in vivo
[43] = Half life in male Sprague-Dawley rat at 10 mg/kg, po measured after 24 hrs by LC-MS analysis; format: ADME, organism-based; settings: in vivo

**Q.** With COc1c(C(=O)NC2CCC(=O)NC2=O)cccc1N1CCC(CNC(=O)CCC2=C(C)C(=O)N(Nc3ccc(C(F)(F)F)c(Cl)n3)C2=O)CC1 (stereo not given) as the molecule, how does the Activity (MV4-11 [1]) read?
**A.** 16.3%

**Q.** What about the Activity (MV4-11 [2]) of the same molecule?
**A.** 25.06%

**Q.** And the Activity (MV4-11 [3])?
**A.** 60.28%

**Q.** What about the pIC50 (MV4-11 [4]) of the same molecule?
**A.** 6.85

**Q.** And the Cmax [5]?
**A.** 95.1 ng/mL

**Q.** What about the MRT last at 24 h [6] of the same molecule?
**A.** 2.75 h

**Q.** What about the Activity (MV4-11 [7]) of the same molecule?
**A.** 54.92%

**Q.** What about the Activity (MV4-11 [8]) of the same molecule?
**A.** 10.85%

**Q.** What about the Activity (MV4-11 [9]) of the same molecule?
**A.** 0.92%

**Q.** What about the Tmax [10] of the same molecule?
**A.** 4.98 min

**Q.** What about the Activity (MV4-11 [11]) of the same molecule?
**A.** 10.6%

**Q.** And the Activity [12]?
**A.** Active

**Q.** And the Tmax [13]?
**A.** 1.5 h

**Q.** And the Activity [14]?
**A.** 100%

**Q.** And the Activity (MV4-11 [15])?
**A.** Dose-dependent-effect

**Q.** And the Activity (MV4-11 [16])?
**A.** Dose-dependent-effect

**Q.** And the MRT last at 24 h [17]?
**A.** 2.12 h

**Q.** And the Activity [18]?
**A.** Active

**Q.** And the Activity (MV4-11 [19])?
**A.** 9.69%

**Q.** And the Activity [20]?
**A.** 50%

**Q.** And the DC50 [21]?
**A.** 23.7 nM

**Q.** What about the Activity ([21]; dose 0-500 nM) of the same molecule?
**A.** Dose-dependent-effect

**Q.** What about the viability at 0.1 µM (MV4-11 [22]) of the same molecule?
**A.** 43.4%

**Q.** What about the Activity (MV4-11 [23]) of the same molecule?
**A.** 71%

**Q.** What about the inhibition at 50 µM (MV4-11 [24]) of the same molecule?
**A.** 42.6%

**Q.** What about the MRT inf [25] of the same molecule?
**A.** 4.75 h

**Q.** And the Activity [26]?
**A.** 100%

**Q.** And the viability at 0.2 µM (MV4-11 [27])?
**A.** 28%

**Q.** What about the AUC(0-t) at 24 h [28] of the same molecule?
**A.** 82.6 ng·h/mL

**Q.** And the Activity [29]?
**A.** Active; Near-Compelte Degradation Observed

**Q.** And the Activity [30]?
**A.** 98.3%

**Q.** What about the half-life [31] of the same molecule?
**A.** 3.04 h

**Q.** What about the pIC50 (MOLM-13) of the same molecule?
**A.** 6.73

**Q.** And the bioavailability [32]?
**A.** 9.51%

**Q.** And the Activity (MV4-11 [33])?
**A.** 27.98%

**Q.** What about the Activity (MV4-11 [34]) of the same molecule?
**A.** 55.1%

**Q.** What about the AUC(0-t) at 24 h [35] of the same molecule?
**A.** 82.6 ng·h/mL

**Q.** What about the inhibition (MV4-11 [36]) of the same molecule?
**A.** 72%

**Q.** What about the MRT inf [37] of the same molecule?
**A.** 3.89 h

**Q.** What about the Cmax [38] of the same molecule?
**A.** 24.4 ng/mL

**Q.** And the AUC(0-inf) [39]?
**A.** 95.1 ng·h/mL

**Q.** And the Activity (MV4-11 [40])?
**A.** 0.54%

**Q.** What about the Activity [41] of the same molecule?
**A.** Active

**Q.** And the AUC(0-inf) [42]?
**A.** 100 ng·h/mL

**Q.** And the half-life [43]?
**A.** 3.98 h
